PubChem BioAssay (NCI)
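Protocol summary: plate cells (96-well), add compound at 5 concentrations, incubate 48 h, interpolate endpoints linearly. GI50 = concentration required for 50% inhibition of growth. TGI marks complete inhibition of growth.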

Columns and labels:
Experiment in all cases: growth of human tumour cells (NCI), 48 h
SF-539 CNS = tested on: SF-539 CNS
CAKI-1 renal = tested on: CAKI-1 renal
MOLT-4 leukemia = tested on: MOLT-4 leukemia
MALME-3M melanoma = tested on: MALME-3M melanoma
DU-145 prostate = tested on: DU-145 prostate
UO-31 renal = tested on: UO-31 renal
786-0 renal = tested on: 786-0 renal
MCF7 breast = tested on: MCF7 breast
SN12C renal = tested on: SN12C renal
OVCAR-5 ovarian = tested on: OVCAR-5 ovarian
SNB-75 CNS = tested on: SNB-75 CNS
OVCAR-3 ovarian = tested on: OVCAR-3 ovarian
ACHN renal = tested on: ACHN renal
OVCAR-8 ovarian = tested on: OVCAR-8 ovarian
OVCAR-4 ovarian = tested on: OVCAR-4 ovarian
HL-60(TB) leukemia = tested on: HL-60(TB) leukemia
M14 melanoma = tested on: M14 melanoma
NCI-H460 lung = tested on: NCI-H460 lung
A498 renal = tested on: A498 renal
BT-549 breast = tested on: BT-549 breast
NCI/ADR-RES ovarian = tested on: NCI/ADR-RES ovarian
IGROV1 ovarian = tested on: IGROV1 ovarian
SW-620 colon = tested on: SW-620 colon
SK-MEL-5 melanoma = tested on: SK-MEL-5 melanoma
NCI-H23 lung = tested on: NCI-H23 lung
EKVX NSCLC = tested on: EKVX NSCLC
CCRF-CEM leukemia = tested on: CCRF-CEM leukemia
HOP-62 NSCLC = tested on: HOP-62 NSCLC
NCI-H226 lung = tested on: NCI-H226 lung
HCT-116 colon = tested on: HCT-116 colon
PC-3 prostate = tested on: PC-3 prostate
SK-MEL-2 melanoma = tested on: SK-MEL-2 melanoma
SF-295 CNS = tested on: SF-295 CNS
MDA-MB-435 = tested on: MDA-MB-435
SF-268 CNS = tested on: SF-268 CNS
KM12 colon = tested on: KM12 colon
RXF 393 renal = tested on: RXF 393 renal
UACC-257 melanoma = tested on: UACC-257 melanoma
HS 578T breast = tested on: HS 578T breast
SK-MEL-28 melanoma = tested on: SK-MEL-28 melanoma
SK-OV-3 ovarian = tested on: SK-OV-3 ovarian
LOX IMVI melanoma = tested on: LOX IMVI melanoma
HCC-2998 colon = tested on: HCC-2998 colon
TK-10 renal = tested on: TK-10 renal
A549 NSCLC = tested on: A549 NSCLC
MDA-MB-231 breast = tested on: MDA-MB-231 breast
K-562 leukemia = tested on: K-562 leukemia
HCT-15 colon = tested on: HCT-15 colon
UACC-62 melanoma = tested on: UACC-62 melanoma
SNB-19 CNS = tested on: SNB-19 CNS
U251 CNS = tested on: U251 CNS
COLO 205 colon = tested on: COLO 205 colon
SR leukemia = tested on: SR leukemia
NCI-H522 lung = tested on: NCI-H522 lung
T-47D breast = tested on: T-47D breast
HT29 colon = tested on: HT29 colon
RPMI-8226 leukemia = tested on: RPMI-8226 leukemia

COc1ccccc1/C=C/[N+](=O)[O-]
GI50 (SF-539 CNS): 2.16 µM
TGI (SF-539 CNS): 4.32 µM
GI50 (CAKI-1 renal): 2.95 µM
TGI (CAKI-1 renal): 46.6 µM
GI50 (MOLT-4 leukemia): 2.54 µM
TGI (MOLT-4 leukemia): 6.45 µM
GI50 (MALME-3M melanoma): 2.82 µM
TGI (MALME-3M melanoma): 9.11 µM
GI50 (DU-145 prostate): 1.95 µM
TGI (DU-145 prostate): 3.63 µM
GI50 (UO-31 renal): 1.45 µM
TGI (UO-31 renal): 2.8 µM
GI50 (786-0 renal): 1.82 µM
TGI (786-0 renal): 3.35 µM
GI50 (MCF7 breast): 2.43 µM
TGI (MCF7 breast): 7.99 µM
GI50 (SN12C renal): 2.47 µM
TGI (SN12C renal): 8.03 µM
GI50 (OVCAR-5 ovarian): 3.55 µM
TGI (OVCAR-5 ovarian): 14.1 µM
GI50 (SNB-75 CNS): 3.57 µM
TGI (SNB-75 CNS): 44.5 µM
GI50 (OVCAR-3 ovarian): 2.23 µM
TGI (OVCAR-3 ovarian): 4.67 µM
GI50 (ACHN renal): 2.01 µM
TGI (ACHN renal): 3.84 µM
GI50 (OVCAR-8 ovarian): 3.1 µM
TGI (OVCAR-8 ovarian): 10.4 µM
GI50 (OVCAR-4 ovarian): 3.56 µM
TGI (OVCAR-4 ovarian): 37.7 µM
GI50 (HL-60(TB) leukemia): 1.92 µM
TGI (HL-60(TB) leukemia): 4.49 µM
GI50 (M14 melanoma): 1.89 µM
TGI (M14 melanoma): 3.94 µM
GI50 (NCI-H460 lung): 2.03 µM
TGI (NCI-H460 lung): 4.35 µM
GI50 (A498 renal): 1.93 µM
TGI (A498 renal): 5.03 µM
GI50 (BT-549 breast): 2.09 µM
TGI (BT-549 breast): 4.13 µM
GI50 (NCI/ADR-RES ovarian): 2.92 µM
TGI (NCI/ADR-RES ovarian): 11.6 µM
GI50 (IGROV1 ovarian): 2.54 µM
TGI (IGROV1 ovarian): 8.32 µM
GI50 (SW-620 colon): 1.56 µM
TGI (SW-620 colon): 3.19 µM
GI50 (SK-MEL-5 melanoma): 2 µM
TGI (SK-MEL-5 melanoma): 4.03 µM
GI50 (NCI-H23 lung): 1.96 µM
TGI (NCI-H23 lung): 4.6 µM
GI50 (EKVX NSCLC): 15.3 µM
TGI (EKVX NSCLC): 58.3 µM
GI50 (CCRF-CEM leukemia): 2.16 µM
TGI (CCRF-CEM leukemia): 6.47 µM
GI50 (HOP-62 NSCLC): 2.57 µM
TGI (HOP-62 NSCLC): 7.12 µM
GI50 (NCI-H226 lung): 3.41 µM
TGI (NCI-H226 lung): 11.7 µM
GI50 (HCT-116 colon): 1.51 µM
TGI (HCT-116 colon): 2.9 µM
GI50 (PC-3 prostate): 2.41 µM
TGI (PC-3 prostate): 6.93 µM
GI50 (SK-MEL-2 melanoma): 5.4 µM
TGI (SK-MEL-2 melanoma): 17.2 µM
GI50 (SF-295 CNS): 4.67 µM
TGI (SF-295 CNS): 20.5 µM
GI50 (MDA-MB-435): 2.59 µM
TGI (MDA-MB-435): 10.5 µM
GI50 (SF-268 CNS): 2.39 µM
TGI (SF-268 CNS): 5.12 µM
GI50 (KM12 colon): 3.02 µM
TGI (KM12 colon): 8.59 µM
GI50 (RXF 393 renal): 1.43 µM
TGI (RXF 393 renal): 2.81 µM
GI50 (UACC-257 melanoma): 1.84 µM
TGI (UACC-257 melanoma): 4.32 µM
GI50 (HS 578T breast): 2.79 µM
TGI (HS 578T breast): 8.83 µM
GI50 (SK-MEL-28 melanoma): 1.62 µM
TGI (SK-MEL-28 melanoma): 3.66 µM
GI50 (SK-OV-3 ovarian): 5.81 µM
TGI (SK-OV-3 ovarian): 17.7 µM
GI50 (LOX IMVI melanoma): 1.4 µM
TGI (LOX IMVI melanoma): 2.86 µM
GI50 (HCC-2998 colon): 1.76 µM
TGI (HCC-2998 colon): 3.24 µM
GI50 (TK-10 renal): 2.81 µM
TGI (TK-10 renal): 6.31 µM
GI50 (A549 NSCLC): 3 µM
TGI (A549 NSCLC): 10.4 µM
GI50 (MDA-MB-231 breast): 2.06 µM
TGI (MDA-MB-231 breast): 6.93 µM
GI50 (K-562 leukemia): 1.56 µM
TGI (K-562 leukemia): 7.37 µM
GI50 (HCT-15 colon): 2.32 µM
TGI (HCT-15 colon): 6.98 µM
GI50 (UACC-62 melanoma): 1.95 µM
TGI (UACC-62 melanoma): 4.13 µM
GI50 (SNB-19 CNS): 4.85 µM
TGI (SNB-19 CNS): 19 µM
GI50 (U251 CNS): 2.07 µM
TGI (U251 CNS): 5.72 µM
GI50 (COLO 205 colon): 2.12 µM
TGI (COLO 205 colon): 4.52 µM
GI50 (SR leukemia): 0.886 µM
TGI (SR leukemia): 5.02 µM
GI50 (NCI-H522 lung): 1.08 µM
TGI (NCI-H522 lung): 2.47 µM
GI50 (T-47D breast): 3.17 µM
TGI (T-47D breast): 16.9 µM
GI50 (HT29 colon): 2.01 µM
TGI (HT29 colon): 3.85 µM
GI50 (RPMI-8226 leukemia): 1.05 µM
TGI (RPMI-8226 leukemia): 3.78 µM
